Measurements taken from patent US5591740A, “Use of debromohymenialdisine for treating osteoarthritis” (OsteoArthritis Sciences, Incorporated, priority 1995, dated 1997).

Assays:
[1] = tested on: chondrocytes, interleukin-1 induced proteoglycan degradation; experiment: Chondrocyte cell culture matrix breakdown assay (IL-1 induced 35S proteoglycan release); assay type: cell-based, calf; conditions: for IC50: Bos taurus, chondrocyte matrix breakdown assay, 1 ng/ml rhIL-1α, 22-24 hours, read-out: IC50, inhibition of proteoglycan degradation; for dose response curve (FIG. 1): percent inhibition over a range of concentrations
Description: A cell culture assay was used to-measure the ability of the test compounds to slow the degradation of the extracellular matrix by a metalloproteinase. This assay measured the amount ^35 S released from chondrocytes grown in a media with ^35 S labeled sodium sulfate. The cell culture assay was carried out as follows:
Two or three 1 to 3 week old calf joints were obtained from an abattoir. The proximal end of the shank was about 4-5" long to facilitate immobilization in the holder. The joint was kept cool and transported on ice. The exterior of the intact joints was washed well with a suitable anti-microbial soap, rinsed clean with warm water, rinsed in betadine and then finally rinsed with 70% ethanol. Up to this point all steps were done in a manner to ensure that the joint was kept as clean as possible. All subsequent steps were performed in a sterile field (i.e., in a Edgeguard laminar flow tissue culture hood). The joint was immobilized and the synovial fluid was aspirated with a needle and syringe. The joint was then cut open to expose the articular cartilage using a #21 scalpel. Using locking hemostats, forceps and a #15 scalpel, the cartilage was excised in full thickness pieces. Care was taken not to cut too deep into the subchondral bone to prevent bleeding. The cartilage pieces were placed into a 50 mL centrifuge tube containing 25 mL of Delbecco's phosphate buffered saline (D-PBS) supplemented with 1% antibiotic solution (penicillin, streptomycin and fungizone; GIBCO/BRL). The slices from each joint were then placed into separate 50 mL centrifuge tubes. The D-PBS was decanted and replaced with 25 mL of fresh D-PBS supplemented with antibiotics and subsequently agitated gently.
The cartilage pieces were transferred to a fresh 50 mL centrifuge tube and rinsed once more with 25 mL of D-PBS minus antibiotics. An enzymatic digestion solution containing 1 mg/mL of hyaluronidase in serum-free 1:1 DMEM/Ham's F-12 (DMEM/F12) was prepared. This solution was filter sterilized with […] Milex--GV filter and kept on ice until ready to use. The cartilage pieces were digested with approximately 5 mL of hyaluronidase solution per joint for 2×15 minutes at 37° C. in the 50 mL centrifuge tube with gentle agitation at the 15 minute mark. This procedure removed residual hyaluronic acid from the surface of the chips. The enzymatic digestion solution was then aspirated and the cartilage pieces were rinsed with 25 mL of D-PBS.
A second enzymatic digestion solution containing 2.5 mg trypsin and 2 mg collagenase P per mL serum-free DMEM/F12 was prepared. This solution was also filter sterilized with a […] Millex--GV filter and kept on ice until ready to use. The cartilage pieces were digested with approximately 5 mL of trypsin: collagenase solution per joint for 2×15 minutes at 37° C. in the 50 mL centrifuge tube with gentle agitation at the 15 minute mark. This procedure removed the synovial fibroblasts and any adherent connective tissue from the surface of the chips. The enzymatic digestion solution was then carefully removed and saved and the cartilage pieces were rinsed with 25 mL of D-PBS.
A third enzymatic solution containing 2 mgs of collagenase P (BMB) per mL serum-free DMEM/F12 was prepared. This solution was filter sterilized with a […] Millex--GV filter and kept on ice until ready to use. The pre-digested cartilage pieces were finally digested with approximately 20 mL of enzymatic digestion solution per joint for 5-6 hours at 37° C. in a Bellco stirring digestion flask, at which point the cartilage was fully digested away.
The enzymes in the synovial fibroblast and chondrocyte digest were neutralized by addition of an equal volume of DMEM/F12 supplemented with 5% fetal bovine serum. Fibroblasts were plated in DMEM at a cellular density of 6.6×10^3 cells per cm^2. […]

[2] = tested on: bovine cartilage explants, interleukin-1 stimulated proteoglycan degradation; experiment: Bovine articular cartilage explant assay (IL-1 induced 35S-GAG release); assay type: cell-based, bovine (1 to 3 week old calf); conditions: for IC50: Bos taurus, bovine cartilage explants, rhIL-1α 5 ng/mL, 3-4 days, read-out: IC50, inhibition of interleukin-1 stimulated proteoglycan degradation; for dose response curve (FIG. 2): percent inhibition over a range of concentrations
Excerpt: A tissue culture assay was used to measure the ability of the compounds of the present invention to slow the degradation of the extracellular matrix by metalloproteinases. This assay measured the amount of ^35 S-glycosaminoglycan (^35 S-GAG) released from labeled bovine cartilage explants.
Knee joints from a 1 to 3 week old calf were obtained immediately after sacrifice from the Abattoir and then transported on ice. The intact joints were washed well with tap water and soaked in 50% (v/v) Povidine iodine solution, obtained from Burre National, Inc., Baltimore, Md. All subsequent steps were performed in a laminar flow tissue culture hood using standard sterile technique. The joint was immobilized in a shank holder and the joint capsule was cut open to expose the articular cartilage. Cartilage explant plugs, approximately 15 mg wet weight, were removed from the flat articulating surfaces in the lower-most region of the knee joint using a sterile steel cork-borer and collected in a 250 mL roller bottle containing about 100 mL fresh Delbecco's minimum essential medium (DMEM), obtained from Gibco BRC, Life Technologies, Gaithersburg, Md., containing 4.5 g/l (D)-glucose and (L)-glutamine, without sodium pyruvate. The fresh media also contained enough Hepes buffer and sodium bicarbonate such that the pH was about 7.4. The media was then further supplemented just before use with 100 units Penicillin, 100 μg Streptomycin, and 50 μg (L)-ascorbic acid per mL of medium.
Once collected, the explant plugs were washed four times with 50 mL fresh DMEM. The plugs were then placed in the incubator for a minimum of 1 hour to equilibrate, before proceeding to make disks from the articulating surface of each plug. A 1 mm thick disk was sliced from individual plugs from the end that was the articulating surface of the joint. The plug was held steady in the sterile template (4 mm diameter ×1.5 mm deep) using sterile forceps. A scalpel blade was used to carefully slice off the disk. Only the superficial articulating surface responded well in culture.
Individual disks obtained were transferred to a tissue culture flask containing about 100 mL fresh media. The flask containing the disks was placed in an incubator at 37° C. (with 5% CO2, 95% air) and allowed to equilibrate overnight and at least one additional day before labeling. When ready to label, the old media was replaced with 50 mL fresh media containing about 500 μCi ^35 S-Sodium Sulfate. The plugs were labeled in bulk for about 48 hours. […]
The TC plates were then placed in the incubator and cultured for 3-4 days (initial incubation with rhIL-1α alpha takes at least 3 days to stimulate endogenous metalloproteinases). A 50 μL aliquot of media from each TC plate was saved and counted. […]

[3] = tested on: osteoarthritis in Hartley guinea pigs following surgical induction of joint instability; experiment: Slowing the development of osteoarthritis in the Hartley guinea pig model (surgically induced joint instability, Mankin scoring); assay type: in vivo, male Hartley guinea pigs; design: Structure (Mankin criteria), mean / Cells (Mankin criteria), mean / Safranin O (Mankin criteria), mean / mean Mankin score: scale not given here; conditions: for Cells (Mankin criteria), mean: untreated 1.6; for Safranin O (Mankin criteria), mean: untreated 2.3; for Structure (Mankin criteria), mean: untreated 4.6; for mean Mankin score: untreated 10.3, placebo 10.0
Description: Thirty five male Hartley guinea pigs 40 days old, were purchased from Charles River Laboratories. Each group consisted of 5 animals that were euthanized at 1, 2, 3, 4, 5, 6 and 8 months post-surgery. Ketamine 40 mg/kg, Xylazine 5 mg/kg and Fentanyl 0.1 mg/kg sc were used for anesthesia. Naloxone hydrochloride was given at 0.1 mg/kg following surgery. For radiography, animals were sedated with Xylazine 10 mg/kg sc and superficially anesthetized with Ketamine 20 mg/kg sc.
Surgery was performed under direct visualization using a dissecting microscope at 7.5 fold magnification. A medial longitudinal parapatellar incision was followed by division of the capsule and synovial layers. A partial medical menisectomy was followed by transection of the anterior cruciate ligament. Confirmation of the ligament transection was obtained by a positive anterior drawer sign. The capsule was continuously sutured with 5-0 VICRYL™ and the skin was closed with staples.
After the animals were sacrificed, joints were prepared for histological examination by standard techniques. Joints were fixed for 14 days in 10% formalin. Knees were then decalcified in 20% Formic acid in PBS, pH 7.2 for 24 hours. Sections cut at 5μ were stained with Safranin O, Fast Green and Hematoxylin. Radiographic evaluation was performed with antero-posterior and lateral views. A dental X-Ray unit and DF-50 film were used. Histopathological scoring was performed by two blinded, independent observers using the Mankin criteria (Mankin, H. J., "Biochemical and Metabolic Aspects of Osteoarthritis," Orthopedic Clinics of North America, 2:19-30 (1971). This evaluation system grades the structural defects, cellular changes, loss of proteoglycan as reflected by Safranin 0, and disruption of an antatomic landmark reflecting the transition to calcified cartilage. The Mankin scoring criteria are listed below:
Surgery was performed on twenty-four male Hartley guinea pigs during which the joint instability was induced according to the procedure described in Example 4.
The animals were divided into four groups of six. Beginning two weeks following surgery, each animal in the first two groups was given weekly intraarticular injections into the surgically treated joints of 0.3 mg (6 mg/ml) or 1.5 mg of Z-debromohymenialdisine (30 mg/ml) in a vehicle containing carboxymethylcellulose (2 mg/ml saline) and polysorbate 80 (0.5 mg/ml saline). Total volume of the injection was 50 μl. Group III animals were given weekly intraarticular injections of a placebo, while Group IV animals were left untreated. The treatments were continued for seven weeks.
At the termination of the system, the animals were euthanized and […] evaluation of the knees was performed as described in Example 5 using the Mankin criteria. The results of the histological evaluation at seven weeks post surgery are depicted in FIG. 4.

[4] = 0.3 or 1.5 mg/week intraarticular

SMILES | IC50 [1] [µM] | dose response curve (FIG. 1) [1] | IC50 [2] [µM] | dose response curve (FIG. 2) [2] | Cells (Mankin criteria), mean ([3]; 0.3 mg weekly intraarticular) | Safranin O (Mankin criteria), mean ([3]; 0.3 mg weekly intraarticular) | Structure (Mankin criteria), mean ([3]; 0.3 mg weekly intraarticular) | mean Mankin score ([3]; 0.3 mg/week intraarticular) | Cells (Mankin criteria), mean ([3]; 1.5 mg weekly intraarticular) | Safranin O (Mankin criteria), mean ([3]; 1.5 mg weekly intraarticular) | Structure (Mankin criteria), mean ([3]; 1.5 mg weekly intraarticular) | mean Mankin score ([3]; 1.5 mg/week intraarticular) | disease progression, result in words [3, 4] | structural and biochemical changes in developing osteoarthritis (loss of Safranin O staining), result in words [3, 4] | joint degeneration and cartilage degradation, result in words ([3]; animal model, weekly intraarticular)
O=C1NC(=O)/C(=C2/CCNC(=O)c3[nH]c(Br)cc32)N1 [Axinohydantoin (3), axinohydantoin] | > 50 |  |  |  |  |  |  |  |  |  |  |  |  |  | 
NC1=N/C(=C2\CCNC(=O)c3[nH]ccc32)C(=O)N1 [E-debromohymenialdisine] | 6 | broad, shallow dose response curve | 50 | broad, shallow dose response curve |  |  |  |  |  |  |  |  |  |  | 
NC1=NC(=O)/C(=C2\CCNC(=O)c3[nH]c(Br)cc32)N1 [Hymenialdisine (2), hymenialdisine] | > 50 |  |  |  |  |  |  |  |  |  |  |  |  |  | 
NC1=N/C(=C2/CCNC(=O)c3[nH]ccc32)C(=O)N1 [Z-debromohymenialdisine] | 0.8 | broad, shallow dose response curve | 2 | broad, shallow dose response curve | 1.2 | 1.5 | 3.5 | 6.7 | 1.5 | 1.1 | 1.6 | 5.5 | significant reduction in disease progression | able to diminish the structural and biochemical changes | effective in slowing joint degeneration and cartilage degradation
